The values that follow come from ChEMBL document CHEMBL1123299, “New antiarrhythmic agents. 2,2,5,5-Tetramethyl-3-pyrroline-3-carboxamides and 2,2,5,5-tetramethylpyrrolidine-3-carboxamindes” (J Med Chem, 1986).

SMILES strings stand for the structures.

The first data set has as its system Cavia porcellus. Kind of data set: Amount of ouabain needed for production of ventricular arrhythmias that causes death in guinea pig by cardiac arrest at a dose of 1 mg/kg iv given 5 min prior. It counts as functional, Cardiac ventricle.
Conditions: not given
On to `CCc1nc2ccccc2c(=O)n1CCCNC(=O)C1=CC(C)(C)NC1(C)C`, for which the Average dose was 0.316 mg/kg.
Still for that read-out and setting: under `Cc1cccc(C)c1OCC(C)NC(=O)C1=CC(C)(C)NC1(C)C` (stereo not given) stands 0.3476 mg/kg.
On the same count and under the same terms, the figure for `C=CCOc1ccccc1CNCCCNC(=O)C1=CC(C)(C)NC1(C)C` is 0.3061 mg/kg.

The subject of the next data set is Cavia porcellus. Kind of data set: Amount of ouabain needed for production of ventricular arrhythmias that causes death in guinea pig by cardiac arrest at a dose of 4 mg/kg iv given 5 min prior. In kind it is functional, Cardiac ventricle.
Conditions: not given
`CCN(CC)CC(=O)Nc1c(C)cccc1C` [LIDOCAINE] came in with an Average dose of 0.2702 mg/kg.
On the same count and under the same terms, the figure for `Cc1cccc(C)c1NC(=O)C(C)N` (stereo not given) [TOCAINIDE] is 0.3928 mg/kg; for `Cc1cccc(C)c1OCC(C)N` (stereo not given) [MEXILETINE] it is 0.2861 mg/kg.

A further data set has as its system Cavia porcellus. Kind of data set: Amount of ouabain needed for production of ventricular extra-systoles at a dose of 1 mg/kg (iv given 5 min prior) in guinea pig. In kind it is functional, Cardiac ventricle.
Conditions: not given
`CCc1nc2ccccc2c(=O)n1CCCNC(=O)C1=CC(C)(C)NC1(C)C` displayed an Average dose of 0.2115 mg/kg.
Same read-out and setting: under `Cc1cccc(C)c1OCC(C)NC(=O)C1=CC(C)(C)NC1(C)C` (stereo not given) stands 0.2534 mg/kg; under `C=CCOc1ccccc1CNCCCNC(=O)C1=CC(C)(C)NC1(C)C`, 0.2243 mg/kg.

Another data set has as its system Cavia porcellus. Kind of data set: Amount of ouabain needed for production of ventricular extra-systoles at a dose of 2 mg/kg (iv given 5 min prior) in guinea pig. It counts as functional, Cardiac ventricle.
Conditions: not given
For `Cc1cccc(C)c1NC(=O)CNC(=O)C1CC(C)(C)NC1(C)C` (stereo not given), the Average dose amounted to 0.1969 mg/kg.
The same measure, in the same setting: the figure for `Cc1cccc(C)c1NC(=O)CNC(=O)C1=CC(C)(C)NC1(C)C` is 0.2142 mg/kg.
Same read-out and setting: under `Cc1cccc(C)c1NC(=O)C(C)NC(=O)C1=CC(C)(C)NC1(C)C` (stereo not given) stands 0.2089 mg/kg; under `C/C=C/c1ccc(OCC(=O)NCCCNC(=O)C2=CC(C)(C)NC2(C)C)c(OC)c1`, 0.2011 mg/kg; under `C=CCc1ccc(OCC(=O)NCCCNC(=O)C2=CC(C)(C)NC2(C)C)c(OC)c1`, 0.2266 mg/kg.
The same measure, in the same setting: the figure for `CC1(C)C=C(C(=O)NCCCN2C(=O)c3ccccc3C2=O)C(C)(C)N1` is 0.2369 mg/kg.

The next data set concerns Cavia porcellus. Kind of data set: Amount of ouabain needed for production of ventricular extra-systoles at a dose of 4 mg/kg (iv given 5 min prior) in guinea pig. It counts as functional, Cardiac ventricle.
Conditions: not given
Compound `CCN(CC)CC(=O)Nc1c(C)cccc1C` [LIDOCAINE] came in with an Average dose of 0.2001 mg/kg.
Still for that read-out and setting: the figure for `Cc1cccc(C)c1NC(=O)C(C)N` (stereo not given) [TOCAINIDE] is 0.236 mg/kg.
As for `Cc1cccc(C)c1OCC(C)N` (stereo not given) [MEXILETINE], the Average dose turned out to be 0.1855 mg/kg.

The test system of the next data set is Cavia porcellus. Kind of data set: Amount of ouabain needed for production of ventricular fibrillation at a dose of 1 mg/kg (iv given 5 min prior) in guinea pig.
Conditions: not given
In kind it is functional, Cardiac ventricle.
`CCc1nc2ccccc2c(=O)n1CCCNC(=O)C1=CC(C)(C)NC1(C)C`: the Average dose came to 0.2982 mg/kg.
Still for that read-out and setting: the figure for `Cc1cccc(C)c1OCC(C)NC(=O)C1=CC(C)(C)NC1(C)C` (stereo not given) is 0.3166 mg/kg.
Same read-out and setting: under `C=CCOc1ccccc1CNCCCNC(=O)C1=CC(C)(C)NC1(C)C` stands 0.2802 mg/kg.

For the next data set, the system named is Cavia porcellus. Kind of data set: Amount of ouabain needed for production of ventricular fibrillation at a dose of 2 mg/kg (iv given 5 min prior) in guinea pig. It counts as functional, Cardiac ventricle.
Conditions: not given
`Cc1cccc(C)c1NC(=O)CNC(=O)C1CC(C)(C)NC1(C)C` (stereo not given) displayed an Average dose of 0.2909 mg/kg.
On the same count and under the same terms, under `Cc1cccc(C)c1NC(=O)CNC(=O)C1=CC(C)(C)NC1(C)C` stands 0.2842 mg/kg; under `Cc1cccc(C)c1NC(=O)C(C)NC(=O)C1=CC(C)(C)NC1(C)C` (stereo not given), 0.3253 mg/kg.
`C/C=C/c1ccc(OCC(=O)NCCCNC(=O)C2=CC(C)(C)NC2(C)C)c(OC)c1` showed an Average dose of 0.2509 mg/kg.
The same measure, in the same setting: under `C=CCc1ccc(OCC(=O)NCCCNC(=O)C2=CC(C)(C)NC2(C)C)c(OC)c1` stands 0.3536 mg/kg; under `CC1(C)C=C(C(=O)NCCCN2C(=O)c3ccccc3C2=O)C(C)(C)N1`, 0.3455 mg/kg.

The subject of the next data set is Cavia porcellus. Kind of data set: Amount of ouabain needed for production of ventricular fibrillation at a dose of 4 mg/kg (iv given 5 min prior) in guinea pig. It counts as functional, Cardiac ventricle.
Conditions: not given
As for `CCN(CC)CC(=O)Nc1c(C)cccc1C` [LIDOCAINE], the Average dose worked out at 0.2477 mg/kg.
As for `Cc1cccc(C)c1NC(=O)C(C)N` (stereo not given) [TOCAINIDE], the Average dose was 0.3581 mg/kg.
On the same count and under the same terms, under `Cc1cccc(C)c1OCC(C)N` (stereo not given) [MEXILETINE] stands 0.2459 mg/kg.

System in a further data set: not listed separately
Kind of data set: Acute toxicity determined after intravenal administration in mice. The settings on record: mouse, in vivo, iv. In kind it is organism-based.
Take `Cc1cccc(C)c1NC(=O)CNC(=O)C1CC(C)(C)NC1(C)C` (stereo not given): the LD50 was 40 mg/kg.
The same measure, in the same setting: under `Cc1cccc(C)c1OCC(C)NC(=O)C1=CC(C)(C)NC1(C)C` (stereo not given) stands 11 mg/kg.
As to `Cc1cccc(C)c1NC(=O)CNC(=O)C1=CC(C)(C)NC1(C)C`, the LD50 was found to be 53 mg/kg.
Still for that read-out and setting: under `Cc1cccc(C)c1NC(=O)C(C)NC(=O)C1=CC(C)(C)NC1(C)C` (stereo not given) stands 15 mg/kg.
The same measure, in the same setting: the figure for `C/C=C/c1ccc(OCC(=O)NCCCNC(=O)C2=CC(C)(C)NC2(C)C)c(OC)c1` is 30 mg/kg; for `C=CCOc1ccccc1CNCCCNC(=O)C1=CC(C)(C)NC1(C)C` it is 18 mg/kg.

A further data set relates to Rattus norvegicus. Kind of data set: Effective dose against aconitine-induced arrhythmia after intravenal administration in anesthetized rats. It counts as functional.
Conditions: not given
In the case of `Cc1cccc(C)c1NC(=O)CNC(=O)C1CC(C)(C)NC1(C)C` (stereo not given), the ED150 turned out to be 0.84 mg/kg.
Still for that read-out and setting: under `Cc1cccc(C)c1OCC(C)NC(=O)C1=CC(C)(C)NC1(C)C` (stereo not given) stands 0.93 mg/kg; under `Cc1cccc(C)c1NC(=O)CNC(=O)C1=CC(C)(C)NC1(C)C`, 2.4 mg/kg.
For `Cc1cccc(C)c1NC(=O)C(C)NC(=O)C1=CC(C)(C)NC1(C)C` (stereo not given), the ED150 stood at 1.9 mg/kg.
With `C=CCOc1ccccc1CNCCCNC(=O)C1=CC(C)(C)NC1(C)C`, the ED150 is 1.9 mg/kg.

The species entered for a further data set is Rattus norvegicus. Kind of data set: Relative potency with reference to quinidine. It counts as functional.
Conditions: not given
In turn, `CCc1nc2ccccc2c(=O)n1CCCNC(=O)C1=CC(C)(C)NC1(C)C` yielded a Relative potency of 7.
The same measure, in the same setting: under `Cc1cccc(C)c1NC(=O)CNC(=O)C1CC(C)(C)NC1(C)C` (stereo not given) stands 14.2.
On the same count and under the same terms, the figure for `Cc1cccc(C)c1OCC(C)NC(=O)C1=CC(C)(C)NC1(C)C` (stereo not given) is 12.8; for `Cc1cccc(C)c1NC(=O)CNC(=O)C1=CC(C)(C)NC1(C)C` it is 4.9; for `Cc1cccc(C)c1NC(=O)C(C)NC(=O)C1=CC(C)(C)NC1(C)C` (stereo not given) it is 6.3.
Compound `C/C=C/c1ccc(OCC(=O)NCCCNC(=O)C2=CC(C)(C)NC2(C)C)c(OC)c1` returned a Relative potency of 5.4.
On the same count and under the same terms, under `C=CCc1ccc(OCC(=O)NCCCNC(=O)C2=CC(C)(C)NC2(C)C)c(OC)c1` stands 8.5; under `C=CCOc1ccccc1CNCCCNC(=O)C1=CC(C)(C)NC1(C)C`, 6.3.
The compound `CC1(C)C=C(C(=O)NCCCN2C(=O)c3ccccc3C2=O)C(C)(C)N1` gave a Relative potency of 4.6.

The test system of another data set is Rattus norvegicus. Kind of data set: Tested for incidence of arrhythmias in rats after a intravenal administration of 0.5 mg/kg expressed as no. of positive cases out of no. of tested cases (10). In kind it is functional.
Conditions: not given
Take `Cc1cccc(C)c1OCC(C)NC(=O)C1=CC(C)(C)NC1(C)C` (stereo not given): the “No. of positive cases” value was 10.

The test system of the next data set is Rattus norvegicus. Kind of data set: Tested for incidence of arrhythmias in rats after a intravenal administration of 4 mg/kg expressed as no. of positive cases out of no. of tested cases (10). It counts as functional.
Conditions: not given
Consider `C=CCc1ccc(OCC(=O)NCCCNC(=O)C2=CC(C)(C)NC2(C)C)c(OC)c1`, for which the “No. of positive cases” value was 10.

Another data set deals with Rattus norvegicus. Kind of data set: Incidence of arrhythmias in rats after a intravenal administration at 4 mg/kg, expressed as no. of positive cases out of no. of tested cases (10). It counts as functional.
Conditions: not given
Take `Cc1cccc(C)c1NC(=O)CNC(=O)C1CC(C)(C)NC1(C)C` (stereo not given): the “No. of positive cases” value was 10.
Consider `Cc1cccc(C)c1NC(=O)CNC(=O)C1=CC(C)(C)NC1(C)C`, for which the “No. of positive cases” value amounted to 10.
Turning to `Cc1cccc(C)c1NC(=O)C(C)NC(=O)C1=CC(C)(C)NC1(C)C` (stereo not given), the “No. of positive cases” value came to 10.
Still for that read-out and setting: the figure for `C/C=C/c1ccc(OCC(=O)NCCCNC(=O)C2=CC(C)(C)NC2(C)C)c(OC)c1` is 7.

A further data set deals with Rattus norvegicus. Kind of data set: Tested for incidence of arrhythmias in rats after a intravenal administration of 2 mg/kg expressed as no. of positive cases out of no. of tested cases (10). In kind it is functional.
Conditions: not given
Regarding `CCc1nc2ccccc2c(=O)n1CCCNC(=O)C1=CC(C)(C)NC1(C)C`, the “No. of positive cases” value came to 10.
On the same count and under the same terms, under `C=CCOc1ccccc1CNCCCNC(=O)C1=CC(C)(C)NC1(C)C` stands 10; under `CC1(C)C=C(C(=O)NCCCN2C(=O)c3ccccc3C2=O)C(C)(C)N1`, 10.

Another data set concerns Cavia porcellus. Kind of data set: Amount of ouabain needed for production of ventricular arrhythmias that causes death in guinea pig by cardiac arrest at a dose of 2 mg/kg iv given 5 min prior. In kind it is functional, Cardiac ventricle.
Conditions: not given
`Cc1cccc(C)c1NC(=O)CNC(=O)C1CC(C)(C)NC1(C)C` (stereo not given) yielded an Average dose of 0.3199 mg/kg.
On to `Cc1cccc(C)c1NC(=O)CNC(=O)C1=CC(C)(C)NC1(C)C`, for which the Average dose was 0.3314 mg/kg.
Same read-out and setting: the figure for `Cc1cccc(C)c1NC(=O)C(C)NC(=O)C1=CC(C)(C)NC1(C)C` (stereo not given) is 0.361 mg/kg.
Take `C/C=C/c1ccc(OCC(=O)NCCCNC(=O)C2=CC(C)(C)NC2(C)C)c(OC)c1`: the Average dose worked out at 0.2847 mg/kg.
On the same count and under the same terms, the figure for `C=CCc1ccc(OCC(=O)NCCCNC(=O)C2=CC(C)(C)NC2(C)C)c(OC)c1` is 0.3988 mg/kg; for `CC1(C)C=C(C(=O)NCCCN2C(=O)c3ccccc3C2=O)C(C)(C)N1` it is 0.3825 mg/kg.

A word on the LD50: it is the dose expected to kill half of the subjects tested. Low values mean greater toxicity, high ones lower toxicity.
